In general, IC50 refers to the point on the concentration scale where inhibition reaches its midpoint.

Each structure is given as a SMILES string.

The results in this text go back to patent publication US20200078379A1, “DEFEROXAMINE DERIVATIVES AS MEDICAMENTS” (BIOTECHNOLOGICKY USTAV AV CR, V.V.I., priority 2017, published 2020).

One experiment concerns NIH:OVCAR-3 cells. The experiment is described as follows: crystal violet assay, cellular viability. The note with it: Homo sapiens, NIH:OVCAR-3, 48 hours. It is filed as cell-based.
For experiment [1], the system named is MCF7 cells. The experiment is described as follows: cellular respiration, OXYGRAPH instrument. The experiment is classed as cell-based, human. From the text:
(§1) Application of compound 2 leads to marked inhibition of cellular respiration as evidenced by two independent methods: the Oxygraph instrument (Rohlenova, K., Sachaphibulkij, K., Stursa, J., Bezawork-Geleta, A., Blecha, J., Endaya, B., Werner, L., Cerny, J., Zobalova, R., Goodwin, J., Spacek, T., Alizadeh, P. E., Yan, B., Nguyen, M. N., Vondrusova, M., Sobol, M., Jezek, P., Hozak, P., Truksa, J., Rohlena, J., Dong, L. F., & Neuzil, J. (2017) Selective Disruption of Respiratory Supercomplexes as a New Strategy to Suppress Her2high Breast Cancer. Antioxid. Redox. Signal., 26, 84-103) (Table 6) and Seahorse instrument (Table 7). For Seahorse analysis, 20.000 or 30.000 cells were seeded in 96 well plates and incubated with compound 2 for 1 hour. Afterwards, oxygen consumption rate (OCR) and extracellular acidification rate (ECAR) were measured in three cycles of 3 minutes preceded by 3 minutes of mixing, using a Seahorse XFe96 analyzer (Agilent). Results express the mean values of the three cycles.

The next experiment relates to T47D cells. The experiment is described as follows: AnnexinV/PI cell death assay. It is filed as cell-based. The settings on record: 48 hrs. The protocol: (§2) To confirm such findings by an independent method, cell death-inducing potency (cytotoxic efficacy) of DFO and compound 2 have been tested via annexin V/PI staining commonly used as a measure of apoptotic/necrotic cell death. Briefly, cells were seeded in 12-well plate at 100,000 per well, incubated with the selected compounds for 48 hours, then floating cells were spun, adherent cells trypsinized and spun as well followed by the staining with AnnexinV-FITC and PI probes. Cells were then washed with PBS and measured via Fluorescence Activated Sorter.
Since compound 2 is an iron chelator, we have evaluated the effect of pretreating compound 2 with iron. at a 1:1 ratio by using the Annexin V/PI staining as in example 7.

A further experiment has as its system PaTu 8902 cells. Description: crystal violet assay, cellular viability. The settings on record: PaTu 8902, 48 hours. The experiment is classed as cell-based.
For another experiment, the system named is MDA-MB-231 cells. Description: AnnexinV/PI cell death assay. It is filed as cell-based, human. The settings on record: 48 hrs. The protocol: as §2
Experiment [2] concerns MCF7 cells. Description: OCR and ECAR, Seahorse instrument. It is filed as cell-based, human. The settings on record: 1 hour incubation.
From the text: as §1

Experiment [3] has as its system pancreatic cell line BxPC3. The experiment is described as follows: dose-effect relationship of drugs and mixtures, crystal violet assay, Median-Effect / Combination index. It is filed as cell-based. The protocol: (§3) The potentiation of cytotoxic effect of compound 2 in combination with several cytostatics was evaluated. The dose-effect relationship of individual drugs and mixtures of compound 2 with paclitaxel, cis Pt (cis-platin), doxorubicin and fluorouracil was determined on human mammary gland cancer cell line MDA-MB-231 and pancreatic cell line BxPC3 by means of crystal violet assay. The linearized Median-Effect Plot of dose response line provided both parameters (IC50; trend line m(slope) value) of Median-Effect Equation for individual and combination treatment [ref: Theoretical basis, experimental design, and computerized simulation of synergism and antagonism in drug combination studies; Ting-Chao Chou: Pharmacol Rev. 58(3), 2006, 621-81; Erratum in Pharmacol Rev. 2007; 59(1), 124]:
(§4) Potentiation of combination effect of compound 2 was expressed for concentrations IC50, IC75, IC90, IC95 by calculation of Combination index (CI) applying Combination Index Theorem for mutually exclusive drugs. Overall CI was expressed by means of weighted average of IC50, IC75, IC90, IC95 [ref: Quantitative analysis of dose-effect relationships: the combined effects of multiple drugs or enzyme inhibitors; Ting-Chao Chou, Paul Talalay: Advances in Enzyme Regulation, Volume 22, 1984, Pages 27-55]: […]

The subject of experiment [4] is human mammary gland cancer cell line MDA-MB-231. The description is as above. The experiment is classed as cell-based. The note with it: MDA-MB-231, crystal violet, 48 hours. The protocol: as §3, §4

In the case of `CC(=O)N(O)CCCCCNC(=O)CCC(=O)N(O)CCCCCNC(=O)CCC(=O)N(O)CCCCCN(CCCCCCCCCC[P+](c1ccccc1)(c1ccccc1)c1ccccc1)CCCCCCCCCC[P+](c1ccccc1)(c1ccccc1)c1ccccc1.[Cl-].[Cl-]` [Compound 2, Triphenyl(3,14,25-trihydroxy-2,10,13,21,24-pentaoxo-31-(10-(triphenylphosphonio)decyl)-3,9,14,20,25,31-hexaazahentetracontan-41-yl)phosphonium chloride], the IC50 amounted to 3.7 µM in the experiment on NIH:OVCAR-3 cells; 5.5 µM in the experiment on PaTu 8902 cells; 4.5 µM in experiment [3] (Homo sapiens, BXPC-3, 48 h, read-out: Median-Effect Plot parameter IC50); 5.89 µM in experiment [4] (Homo sapiens, Chou-Talalay method, read-out: Median-Effect Plot parameter IC50). Moreover, the “mean O2 flow per cells” value amounted to 15.9 pmol/s/mL in the experiment on MCF7 cells [1] (MCF7, 5 μM); 9.8 pmol/s/mL with MCF7 cells [1] (MCF7, 5 μM (5 h)); 7.1 pmol/s/mL in the experiment on MCF7 cells [1] (MCF7, 25 μM). Also, the “mean percentage of dead cells (AnnexinV/PI)” value with T47D cells (5 μM) is listed as 38.3 (5.8) %; in the experiment on T47D cells (10 μM) it was 41.2 (3.1) %; with T47D cells (20 μM) it was 93.6 (1.3) %; with MDA-MB-231 cells (MDA-MB-231, 5 μM) it was 39.8%; in the experiment on MDA-MB-231 cells (MDA-MB-231, 10 μM), 78.5%; in the experiment on MDA-MB-231 cells (MDA-MB-231, 20 μM), 98.0%. Further, the “Oxygen consumption rate (OCR)” value in the experiment with MCF7 cells [2] (MCF7, 5 μM) is reported as 15.4 pmol*min^−1 10.000 cells^−1; with MCF7 cells [2] (MCF7, 10 μM) it was 9.6 pmol*min^−1 10.000 cells^−1. The “extracellular acidification rate (ECAR)” value in the experiment on MCF7 cells [2] (MCF7, 5 μM) is listed as 9.69 mpH*min^−1 10.000 cells^−1; in the experiment on MCF7 cells [2] (MCF7, 10 μM), 8.2 mpH*min^−1 10.000 cells^−1. Moreover, the figures for the “Median-Effect Plot parameter m (slope)” value in experiment [3] (48 hours) and in experiment [4] were 1.57 and 1.2778, respectively.
